Consider 20 compounds from ChEMBL document CHEMBL4619821, “Bioinspired Hybrid Fluorescent Ligands for the FK1 Domain of FKBP52” (J Med Chem, 2020).

Data set [1] addresses T1, Peptidyl-prolyl cis-trans isomerase FKBP4 (Homo sapiens, UniProt Q02790).
T1 sequence (Q02790 whole entry): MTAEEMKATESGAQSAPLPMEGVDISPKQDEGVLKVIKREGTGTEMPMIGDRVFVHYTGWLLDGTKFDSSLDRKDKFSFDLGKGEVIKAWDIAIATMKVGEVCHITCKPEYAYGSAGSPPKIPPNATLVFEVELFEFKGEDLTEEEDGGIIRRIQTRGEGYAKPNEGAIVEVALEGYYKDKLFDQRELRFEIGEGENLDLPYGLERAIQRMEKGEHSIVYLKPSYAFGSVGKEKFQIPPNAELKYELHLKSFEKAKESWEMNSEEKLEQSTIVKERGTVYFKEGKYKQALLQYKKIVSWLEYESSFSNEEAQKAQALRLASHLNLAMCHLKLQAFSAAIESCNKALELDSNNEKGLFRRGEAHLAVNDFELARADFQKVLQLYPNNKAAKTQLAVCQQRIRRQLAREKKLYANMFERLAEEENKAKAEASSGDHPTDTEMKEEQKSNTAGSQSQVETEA
Put plainly: (§1) Binding affinity to FKBP52 FK1 domain (1 to 148 residues) (unknown origin) by Dansyl fluorescence based assay.

Data set [2] has as its target T1, Peptidyl-prolyl cis-trans isomerase FKBP4. Kind of data set: Binding affinity to FKBP52 FK1 domain (1 to 148 residues) (unknown origin) by isothermal calorimetric analysis. On the technique in general: Isothermal titration calorimetry measures the heat released or taken up as one component is titrated into another.
Data set [3] has as its target T2, Peptidyl-prolyl cis-trans isomerase FKBP4 (Homo sapiens) (UniProt Q02790).
T2 sequence (whole entry): T1 sequence (Q02790 whole entry)
Described as §1.

The target in data set [4] is T2, Peptidyl-prolyl cis-trans isomerase FKBP4 (Homo sapiens). Put plainly: Binding affinity to FKBP52 FK1 domain (1 to 148 residues) (unknown origin) in PBS at 20 uM in presence of one equivalent FK506 by FRET assay.
Data set [5] shares this target. Put plainly: Binding affinity to FKBP52 FK1 domain (1 to 148 residues) (unknown origin) assessed as blue shift at 10 uM by Dansyl fluorescence based assay.
Data set [6] concerns the target T1, Peptidyl-prolyl cis-trans isomerase FKBP4. Put plainly: Binding affinity to FKBP52 FK1 domain (1 to 148 residues) (unknown origin) in PBS by fluorescence spectroscopy.
Data set [7] has as its target T2, Peptidyl-prolyl cis-trans isomerase FKBP4 (Homo sapiens). Put plainly: Binding affinity to FKBP52 FK1 domain (1 to 148 residues) (unknown origin) assessed as increase in fluorescence at 10 uM by Dansyl fluorescence based assay relative to control.
Data set [8] shares this target. Put plainly: Binding affinity to FKBP52 FK2 domain (167 to 253 residues) (unknown origin) in PBS at 10 uM by Dansyl fluorescence based assay relative to control.
For data set [9] the target is unchanged. Kind of data set: Binding affinity to FKBP52 FK1 domain (1 to 148 residues) (unknown origin) at 10 uM in presence of FK506 by Dansyl fluorescence based assay.
The target is the same in data set [10]. Kind of data set: Binding affinity to FKBP52 FK1 domain (1 to 148 residues) (unknown origin) in PBS assessed as quenching of Trp emission at 10 to 20 uM by fluorimetric analysis.
Data set [11] has the same target. Put plainly: Binding affinity to FKBP52 FK1 domain (1 to 148 residues) (unknown origin) in PBS assessed as induction of blue shift by measuring emission wavelength at 10 to 20 uM by fluorimetric analysis (reference value: 560 nm).
Data set [12] is described as follows: Solubility of the compound. Format: physicochemical.
The target of data set [13] is T2, Peptidyl-prolyl cis-trans isomerase FKBP4 (Homo sapiens). Put plainly: Binding affinity to FKBP52 FK1 domain (1 to 148 residues) (unknown origin) at 10 uM by Dansyl fluorescence based assay.

SMILES strings stand for the structures. pKd: −log10 of the molar value. The source made the active and inactive calls. No cut-off for these calls is given here. Square brackets hold non-standard residues; d marks the D form. Peptide text beside a SMILES is read from it. * marks the point of attachment. Pro(trans-4-F) = O=C(O)[C@@H]1C[C@@H](F)CN1; Dansyl = CN(C)c1cccc2c(S(=O)(=O)*)cccc12; Pro(cis-4-F) = O=C(O)[C@@H]1C[C@H](F)CN1; Hyp = O=C(O)[C@@H]1C[C@@H](O)CN1; hPhe = N[C@@H](CCc1ccccc1)C(=O)O; 2Pal = N[C@@H](Cc1ccccn1)C(=O)O; 3Pal = N[C@@H](Cc1cccnc1)C(=O)O; 4Pal = N[C@@H](Cc1ccncc1)C(=O)O; Tic = O=C(O)[C@@H]1Cc2ccccc2CN1; Tle = CC(C)(C)[C@H](N)C(=O)O; Pip = O=C(O)[C@@H]1CCCCN1; Ac5c = NC1(C(=O)O)CCCC1 Some results are limits rather than exact numbers.

The term pKd denotes the negative decadic logarithm of the Kd, by convention in mol/L.

For `CN(C)c1cccc2c(S(=O)(=O)N3[C@H](C(=O)N[C@@H](CCc4ccccc4)C(=O)N[C@@H](CCCNC(=N)N)C(=O)O)CCC3(C)C)cccc12`, the negative logarithm of the Kd (pKd) in data set [1] was less than 4.30.
With `CN(C)c1cccc2c(S(=O)(=O)N3CCC[C@H]3C(=O)N[C@@H](CCc3ccccc3)C(=O)N[C@@H](CCCNC(=N)N)C(=O)O)cccc12`, the pKd in [2] is 5.30.
The compound `CCCCN(CC(=O)N[C@@H](CCc1ccccc1)C(=O)N[C@@H](CCCNC(=N)N)C(=O)O)S(=O)(=O)c1cccc2c(N(C)C)cccc12` gave a pKd in [2] of less than 4.30.
On the same count and under the same terms, next, `CN(C)c1cccc2c(S(=O)(=O)N3CCC[C@@H]3C(=O)N[C@@H](CCc3ccccc3)C(=O)N[C@@H](CCCNC(=N)N)C(=O)O)cccc12`: less than 4.30.
For `CN(C)c1cccc2c(S(=O)(=O)N3CCC[C@H]3C(N)=O)cccc12`, the outcome in data set [3] was inactive.
In the case of `CN(C)c1cccc2c(S(=O)(=O)N3C[C@H](O)C[C@H]3C(=O)N[C@@H](CCc3ccccc3)C(=O)N[C@@H](CCCNC(=N)N)C(=O)O)cccc12` (Dansyl-[Hyp]-[hPhe]-Arg-OH), the pKd in [2] was less than 4.30.
The same measure, in the same setting: next, `CN(C)c1cccc2c(S(=O)(=O)N3CCCC[C@H]3C(=O)N[C@@H](Cc3ccccc3)C(=O)N[C@@H](CCCNC(=N)N)C(=O)O)cccc12` (Dansyl-[Pip]-Phe-Arg-OH): 5.24.
Consider `CN(C)c1cccc2c(S(=O)(=O)N3CCCC[C@H]3C(=O)N[C@@H](Cc3c[nH]c4ccccc34)C(=O)N[C@@H](CCCNC(=N)N)C(=O)O)cccc12` (Dansyl-[Pip]-Trp-Arg-OH), for which, in data set [1], the pKd is 4.70.
`CN(C)c1cccc2c(S(=O)(=O)N3CCCC[C@H]3C(=O)N[C@@H](Cc3ccccn3)C(=O)N[C@@H](CCCNC(=N)N)C(=O)O)cccc12` (Dansyl-[Pip]-[2Pal]-Arg-OH): the pKd in [2] is 5.46.
Regarding `CN(C)c1cccc2c(S(=O)(=O)N3CCCC[C@H]3C(=O)N[C@@H](Cc3cccnc3)C(=O)N[C@@H](CCCNC(=N)N)C(=O)O)cccc12` (Dansyl-[Pip]-[3Pal]-Arg-OH), the pKd in [2] was 5.52.
The same measure, in the same setting: the result for `CN(C)c1cccc2c(S(=O)(=O)N3CCCC[C@H]3C(=O)N[C@@H](Cc3ccncc3)C(=O)N[C@@H](CCCNC(=N)N)C(=O)O)cccc12` (Dansyl-[Pip]-[4Pal]-Arg-OH) reads less than 4.30; that for `CN(C)c1cccc2c(S(=O)(=O)N3CCCC[C@H]3C(=O)NC3(C(=O)N[C@@H](CCCNC(=N)N)C(=O)O)CCCC3)cccc12` (Dansyl-[Pip]-[Ac5c]-Arg-OH), 5.00.
The compound `CN(C)c1cccc2c(S(=O)(=O)N3CCCC[C@H]3C(=O)N3CCCC[C@H]3C(=O)N[C@@H](CCCNC(=N)N)C(=O)O)cccc12` (Dansyl-[Pip]-[Pip]-Arg-OH) had a pKd in [2] of 5.96.
`CN(C)c1cccc2c(S(=O)(=O)N3CCCC[C@H]3C(=O)N3Cc4ccccc4C[C@H]3C(=O)N[C@@H](CCCNC(=N)N)C(=O)O)cccc12` (Dansyl-[Pip]-[Tic]-Arg-OH): the negative logarithm of the Kd (pKd) in [2] was less than 4.30.
Regarding `CN(C)c1cccc2c(S(=O)(=O)N3CCCC[C@H]3C(=O)N[C@H](C(=O)N[C@@H](CCCNC(=N)N)C(=O)O)C(C)(C)C)cccc12` (Dansyl-[Pip]-[Tle]-Arg-OH), the pKd in [2] was 5.54.
For `CN(C)c1cccc2c(S(=O)(=O)N3CCCC[C@H]3C(=O)N[C@@H](CCc3ccccc3)C(=O)N[C@@H](CCCNC(=N)N)C(=O)O)cccc12` (Dansyl-[Pip]-[hPhe]-Arg-OH), the outcome in data set [4], in [8] and in data set [9] was inactive. Further, the Activity worked out at 30 nm in [5], 67% in data set [10] and 537 nm in data set [11]. For the same compound, the pKd in data set [6] is 5.34; in data set [2], 5.80. Also, the fold change (FC) in data set [7] is 4.
As for `CN(C)c1cccc2c(S(=O)(=O)N3CCCC[C@H]3C(=O)N[C@@H](CCc3ccccc3)C(=O)O)cccc12.O=C(O)C(F)(F)F` (Dansyl-[Pip]-[hPhe]-OH), in data set [12], the solubility result is “Insoluble”. Further, the outcome in [13] was inactive.
In data set [2], `CN(C)c1cccc2c(S(=O)(=O)N3C[C@@H](F)C[C@H]3C(=O)N[C@@H](CCc3ccccc3)C(=O)N[C@@H](CCCNC(=N)N)C(=O)O)cccc12` (Dansyl-[Pro(cis-4-F)]-[hPhe]-Arg-OH) showed a pKd of 5.89.
The same measure, in the same setting: next, `CN(C)c1cccc2c(S(=O)(=O)N3C[C@H](F)C[C@H]3C(=O)N[C@@H](CCc3ccccc3)C(=O)N[C@@H](CCCNC(=N)N)C(=O)O)cccc12` (Dansyl-[Pro(trans-4-F)]-[hPhe]-Arg-OH): 4.70.
Consider `CN(C)c1cccc2c(S(=O)(=O)N3Cc4ccccc4C[C@H]3C(=O)N[C@@H](CCc3ccccc3)C(=O)N[C@@H](CCCNC(=N)N)C(=O)O)cccc12` (Dansyl-[Tic]-[hPhe]-Arg-OH), for which, in [1], the negative logarithm of the Kd (pKd) was less than 4.30.
